The assay deals with T1, human OX2 receptor (Homo sapiens, UniProt O43614).
T1 construct: expressed in transfected cells
T1 sequence (O43614 1-444): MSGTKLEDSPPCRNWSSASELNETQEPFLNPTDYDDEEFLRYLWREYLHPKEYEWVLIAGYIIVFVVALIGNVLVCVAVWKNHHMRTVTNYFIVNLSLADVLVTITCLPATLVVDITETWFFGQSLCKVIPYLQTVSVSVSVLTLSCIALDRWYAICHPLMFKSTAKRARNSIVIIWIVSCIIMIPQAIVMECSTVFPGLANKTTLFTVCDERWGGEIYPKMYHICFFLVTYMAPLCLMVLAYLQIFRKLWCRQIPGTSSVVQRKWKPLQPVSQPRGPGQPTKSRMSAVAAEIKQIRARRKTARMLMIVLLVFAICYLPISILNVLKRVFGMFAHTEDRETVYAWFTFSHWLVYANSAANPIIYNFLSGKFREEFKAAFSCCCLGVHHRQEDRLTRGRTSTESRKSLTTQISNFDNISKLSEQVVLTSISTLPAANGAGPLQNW
Briefly: Measurement of orexin type 2 receptor agonist activity (Experimental Example 2; Fluo-4 AM calcium fluorescence, FDSS μCELL). The following applies: compound at 3 μM; CHO cells expressing human OX2 receptor; DMSO = 0%, 10 nM orexin A (human) = 100%. Format: cell-based. On the procedure: In order to obtain cell clones that stably express human orexin type 2 receptor, human orexin type 2 (residues 1-444, NCBI Reference Sequence: AK314279) was constructed in a pcDNA3.1 (+) vector (Invitrogen) to express in mammalian cells. This plasmid DNA was transfected into CHO-K1 cells by electroporation, and stable clones were obtained by limiting dilution using resistance to G418 as a selection marker.
CHO cells in which human OX2 receptor was forcibly expressed were seeded at 10,000 cells/well into a 384-well black transparent bottom plate (BD falcon), and were incubated at 37° C., 5% CO2 for 1 day after incubation at room temperature for 30 minutes. After removing the cell plate medium, assay buffer containing calcium indicator A (HBSS (Thermo Fisher Scientific), 20 mM HEPES (Thermo Fisher Scientific), 0.1% BSA (Sigma-Aldrich), 2.5 μg/mL Fluo-4 AM (Dojin Kagaku), 0.08% Pluronic F127 (Dojin Kagaku), 1.25 mM probenecid (Dojin Kagaku)) was added at 30 μL/well. After incubation in a 5% CO2 incubator at 37° C. for 30 minutes, it was incubated at room temperature for another 30 minutes. Add 10 μL/well of the test compound diluted with assay buffer B (HBSS, 20 mM HEPES, 0.1% BSA), and use FDSS μCELL (Hamamatsu Photonics) to measure the fluorescence value every 1 second for 1 minute, and then every 2 seconds for 1 minute. It was measured for 1 minute and 40 seconds. The amount of fluorescence value when DMSO is added instead of the test compound is defined as 0%, and the amount of fluorescence value when orexin A (human) (Peptide Institute) with a final concentration of 10 nM is added is defined as 100%. The activity (%) of the test compound was calculated. Table 2-1, 2-2, 2-3, and 2-4 show the activity of each compound at a concentration of 3 μM.
In the case of `Cc1ccc2nc1Oc1cc(ccc1F)C[C@H]1[C@@H](NS(C)(=O)=O)CCN1C(=O)NC2` (relative stereo) [Example 9, N-[rel-(15aR,16R)-11-fluoro-7-methyl-1-oxo-2,3,15a,16,17,18-hexahydro-1H,15H-4,8-(azeno)-10,14-(metheno)pyrrolo[1,2-j][1,8,10]oxadiazacyclo-heptadecin-16-yl]methanesulfonamide (optical isomer)], the “OX2R agonist activity (3 μM, %)” value stood at 93%. As for `CCS(=O)(=O)N[C@@H]1[C@@H]2Cc3cccc(c3)Oc3nc(ccc3Cl)CNC(=O)N2CC1(F)F` (relative stereo) [Example 53, N-[rel-(15aR,16S)-7-chloro-17,17-difluoro-1-oxo-2,3,15a,16,17,18-hexahydro-1H,15H-4,8-(azeno)-14,10-(metheno)pyrrolo[1,2-j][1,8,10]oxadiazacyclo-heptadecin-16-yl]ethanesulfonamide (optical isomer)], the “OX2R agonist activity (3 μM, %)” value is listed as 100%.

As for `Cc1ccc2nc1Oc1cc(ccc1F)C[C@H]1[C@@H](NS(C)(=O)=O)C(F)(F)CN1C(=O)NC2` (relative stereo) [Example 86, N-[rel-(15aS,16R)-11,17,17-trifluoro-7-methyl-1-oxo-2,3,15a,16,17,18-hexahydro-1H,15H-4,8-(azeno)-14,10-(metheno)pyrrolo[1,2-j][1,8,10]oxadiazacyclo-heptadecin-16-yl]methanesulfonamide (optical isomer)], the “OX2R agonist activity (3 μM, %)” value came out at 102%.

Consider `CCS(=O)(=O)N[C@@H]1[C@@H]2Cc3cc(F)cc(c3)Oc3nc(ccc3C)CNC(=O)N2CC1(F)F` (relative stereo) [Example 89, N-[rel-(15aS,16R)-12,17,17-trifluoro-7-methyl-1-oxo-2,3,15a,16,17,18-hexahydro-1H,15H-4,8-(azeno)-14,10-(metheno)pyrrolo[1,2-j][1,8,10]oxadiazacyclo-heptadecin-16-yl]ethanesulfonamide (optical isomer)], for which the “OX2R agonist activity (3 μM, %)” value turned out to be 114%. On to `CCS(=O)(=O)N[C@@H]1[C@@H]2Cc3cc(ccc3F)Oc3nc(ccc3C)CNC(=O)N2CC1(F)F` (relative stereo) [Example 90, N-[rel-(15aS,16R)-13,17,17-trifluoro-7-methyl-1-oxo-2,3,15a,16,17,18-hexahydro-1H,15H-4,8-(azeno)-14,10-(metheno)pyrrolo[1,2-j][1,8,10]oxadiazacyclohepta-decin-16-yl]ethanesulfonamide (optical isomer)], for which the “OX2R agonist activity (3 μM, %)” value is listed as 108%. For `CCS(=O)(=O)N[C@H]1[C@@H](F)CN2C(=O)COc3ccc(Cl)c(n3)Oc3cc(ccc3F)C[C@@H]12` (relative stereo) [Example 91, N-[rel-(15aR,16S,17R)-7-chloro-11,17-difluoro-1-oxo-1,2,15a,16,17,18-hexahydro-15H-4,8-(azeno)-14,10-(metheno)pyrrolo[1,2-d][1,12,4]dioxazacyclohepta-decin-16-yl]ethanesulfonamide (optical isomer)], the “OX2R agonist activity (3 μM, %)” value is reported as 106%. Take `CS(=O)(=O)N[C@@H]1[C@@H]2Cc3ccc(F)c(c3)Oc3nc(ccc3Cl)OCC(=O)N2CC1(F)F` (relative stereo) [Example 95, N-[rel-(15aS,16R)-7-chloro-11,17,17-trifluoro-1-oxo-1,2,15a,16,17,18-hexahydro-15H-4,8-(azeno)-14,10-(metheno)pyrrolo[1,2-d][1,12,4]dioxazacyclo-heptadecin-16-yl]methanesulfonamide (optical isomer)]: the “OX2R agonist activity (3 μM, %)” value amounted to 103%. Turning to `CS(=O)(=O)N[C@@H]1[C@@H]2Cc3cccc(c3)Oc3nc(ccc3C(F)F)[C@@H]3C[C@@H]3C(=O)N2CC1(F)F` (single isomer, unassigned) [Example 107], the “OX2R agonist activity (3 μM, %)” value is 108%. Regarding `CCS(=O)(=O)N[C@H]1CCN2C(=O)NCc3ccc(C)c(n3)Oc3cccc(c3)C[C@@H]12` [Example 3, N-[(15aS,16S)-7-methyl-1-oxo-2,3,15a,16,17,18-hexahydro-1H,15H-4,8-(azeno)-10,14-(metheno)pyrrolo[1,2-j][1,8,10]oxadiazacyclo-heptadecin-16-yl]ethanesulfonamide], the “OX2R agonist activity (3 μM, %)” value is 101%.

Take `CS(=O)(=O)N[C@H]1CCN2C(=O)NCc3ccc(C(F)F)c(n3)Oc3cccc(c3)C[C@@H]12` [Example 8, N-[(15aS,16S)-7-(difluoromethyl)-1-oxo-2,3,15a,16,17,18-hexahydro-1H,15H-4,8-(azeno)-14,10-(metheno)pyrrolo[1,2-j][1,8,10]oxadiazacyclo-heptadecin-16-yl]methanesulfonamide]: the “OX2R agonist activity (3 μM, %)” value was 100%. For the compound `Cc1ccc2nc1Oc1cccc(c1F)C[C@H]1[C@@H](NS(=O)(=O)N(C)C)C(F)(F)CN1C(=O)NC2` [Example 11, N,N-dimethyl-N′-[(15aS,16R)-17,17,20-trifluoro-7-methyl-1-oxo-2,3,15a,16,17,18-hexahydro-1H,15H-4,8-(azeno)-14,10-(metheno)pyrrolo[1,2-j][1,8,10]oxadiazacyclo-heptadecin-16-yl]sulfuric diamide], the “OX2R agonist activity (3 μM, %)” value amounted to 98%.

Turning to `CS(=O)(=O)N[C@H]1[C@@H](F)CN2C(=O)NCc3ccc(Cl)c(c3)Oc3cccc(c3F)C[C@@H]12` [Example 12, N-[(15aS,16R,17S)-7-chloro-17,20-difluoro-1-oxo-2,3,15a,16,17,18-hexahydro-1H,15H-4,8:14,10-di(metheno)pyrrolo[1,2-j][1,8,10]oxadiazacyclo-heptadecin-16-yl]methanesulfonamide], the “OX2R agonist activity (3 μM, %)” value was 99%.

As for `CN(C)S(=O)(=O)N[C@@H]1[C@@H]2Cc3cccc(c3F)Oc3nc(ccc3Cl)CNC(=O)N2CC1(F)F` [Example 13, N′-[(15aS,16R)-7-chloro-17,17,20-trifluoro-1-oxo-2,3,15a,16,17,18-hexahydro-1H,15H-4,8-(azeno)-14,10-(metheno)pyrrolo[1,2-j][1,8,10]oxadiazacyclo-heptadecin-16-yl]-N,N-dimethylsulfuric diamide], the “OX2R agonist activity (3 μM, %)” value was 99%. As to `CS(=O)(=O)N[C@@H]1[C@@H]2Cc3cccc(c3F)Oc3nc(ccc3Cl)CNC(=O)N2CC1(F)F` [Example 14, N-[(15aS,16R)-7-chloro-17,17,20-trifluoro-1-oxo-2,3,15a,16,17,18-hexahydro-1H,15H-4,8-(azeno)-14,10-(metheno)pyrrolo[1,2-j][1,8,10]oxadiazacyclo-heptadecin-16-yl]methanesulfonamide], the “OX2R agonist activity (3 μM, %)” value amounted to 99%.

Consider `CS(=O)(=O)N[C@H]1[C@@H](F)CN2C(=O)NCc3ccc(Cl)c(n3)Oc3cccc(c3F)C[C@@H]12` [Example 15, N-[(15aS,16R,17S)-7-chloro-17,20-difluoro-1-oxo-2,3,15a,16,17,18-hexahydro-1H,15H-4,8-(azeno)-14,10-(metheno)pyrrolo[1,2-j][1,8,10]oxadiazacyclo-heptadecin-16-yl]methanesulfonamide], for which the “OX2R agonist activity (3 μM, %)” value was 104%. For `CS(=O)(=O)N[C@H]1CCN2C(=O)NCc3ccc(Cl)c(n3)Oc3cccc(c3)C[C@@H]12` [Example 16, N-[(15aS,16S)-7-chloro-1-oxo-2,3,15a,16,17,18-hexahydro-1H,15H-4,8-(azeno)-10,14-(metheno)pyrrolo[1,2-j][1,8,10]oxadiazacyclo-heptadecin-16-yl]methanesulfonamide], the “OX2R agonist activity (3 μM, %)” value worked out at 99%. `CCS(=O)(=O)N[C@@H]1[C@@H]2Cc3cccc(c3F)Oc3nc(ccc3Cl)CNC(=O)N2CC1(F)F` [Example 17, N-[(15aS,16R)-7-chloro-17,17,20-trifluoro-1-oxo-2,3,15a,16,17,18-hexahydro-1H,15H-4,8-(azeno)-14,10-(metheno)pyrrolo[1,2-j][1,8,10]oxadiazacyclo-heptadecin-16-yl]ethanesulfonamide]: the “OX2R agonist activity (3 μM, %)” value was 100%.

For the compound `CS(=O)(=O)N[C@H]1[C@@H](F)CN2C(=O)NCc3ccc(C(F)F)c(n3)Oc3cccc(c3F)C[C@@H]12` [Example 18, N-[(15aS,16R,17S)-7-(difluoromethyl)-17,20-difluoro-1-oxo-2,3,15a,16,17,18-hexahydro-1H,15H-8,4-(azeno)-10,14-(metheno)pyrrolo[1,2-j][1,8,10]oxadiazacyclo-heptadecin-16-yl]methanesulfonamide], the “OX2R agonist activity (3 μM, %)” value is reported as 104%.

The values above are taken from patent US20240309016A1, “MACROCYCLIC HETEROCYCLE COMPOUNDS AND USE THEREOF” (TAKEDA PHARMACEUTICAL COMPANY LIMITED, priority 2023, published 2024).
